We go through seven compounds from PMC3702004, “Comparison of Intake and Systemic Relative Effect Potencies of Dioxin-like Compounds in Female Mice after a Single Oral Dose” (Environmental Health Perspectives, 2013).

The test system of the first data set is Cyp1b1 mRNA in PBLs. Kind of data set: Cyp1b1 gene expression in peripheral blood lymphocytes. It counts as in vivo, female C57BL/6 mice. The settings on record: dose metric Adm dose; 3 days after single oral dose. As for the experimental part: Animals. Eight-week-old female C57BL/6 mice (Harlan laboratories, Venray, the Netherlands) were randomly assigned to treatment groups (six animals per group) and allowed to acclimate for 1.5 weeks. The animals were housed in groups in standard cages and conditions (23 ± 2°C, 50–60% relative humidity, 12-hr dark/light cycle) with free access to food and water. Mice received a single dose of test compound by oral gavage at a dosing volume of 10 mL/kg body weight (BW). Mice treated with corn oil vehicle (10 mL/kg BW) served as controls. For each congener, five different doses were administered, ranging from 0.5–100 μg/kg BW (TCDD) to 5,000–500,000 µg/kg BW (PCB-153). Detailed information on doses is provided in Supplemental Material, Table S1 (http://dx.doi.org/10.1289/ehp.1206336). On day 3 after dosing, animals were euthanized by CO2/O2 asphyxiation, and blood was immediately collected from the abdominal aorta. The liver, thymus, spleen, and adipose tissue were removed, weighed (liver, thymus, and spleen), snap frozen, and stored at –80°C. All animal treatments were performed with permission of the Animal Ethical Committee (DEC Utrecht) and performed according to the [Law on Animal Experiments (1977)]. Animals were treated humanely and with regard for alleviation of suffering.
Plasma and PBL isolation. Blood from two mice was pooled (total volume of approximately 1.4 mL); plasma and PBLs were then isolated using Ficoll Paque gradient (GE Healthcare Europe, Diegem, Belgium). Plasma samples were stored at –80°C until compound analysis. Isolated lymphocytes were lysed with RLT buffer (QIAGEN, Venlo, the Netherlands) as described in the QIAGEN RNAeasy kit protocol and stored at –80°C until use.
RNA isolation and quantitative real-time polymerase chain reaction (PCR). Total RNA was isolated from liver and PBLs using a QIAGEN RNeasy kit (QIAGEN). Purity and concentration of the isolated RNA was determined by measuring the absorbance ratio at 260/280 nm and 230/260 nm with a Nanodrop 2000 spectrophotometer (Thermo Scientific, Asheville, NC, USA). RNA was reverse transcribed to complementary DNA (cDNA) using the iScript cDNA synthesis Kit (Bio-Rad, Veenendaal, the Netherlands). Quantitative real-time PCR analyses were performed using the iQ Real-Time PCR Detection System with SYBR green (Bio-Rad). Amplification reactions were set up with […] containing 12.5 μL iQ SYBR Green Supermix (Bio-rad), 0.5 μL distilled H2O, 1 μL (10 μM) forward primer, 1 μL (10 μM) reverse primer, and 10 μL first strand cDNA (10X diluted). Primer sequences were as follows: Cyp1a1: forward-5´-GGTTAACCATGACCGGGAACT-3´ and reverse-5´-TGCCCAAACCAAAGAGAGTGA-3´ ([Schulz et al. 2012]); Cyp1a2: forward-5´-ACATTCCCAAGGAGCGCTGTATCT-3´ and reverse-5´-GTCGATGGCCGAGTTGTTATTGGT-3´ ([Flaveny et al. 2010]); Cyp1b1: forward-5´-GTGGCTGCTCATCCTCTTTACC-3´ and reverse-5´-CCCACAACCTGGTCCAACTC-3´ ([Berge et al. 2004]); β-actin: forward-5´-ATGCTCCCCGGGCTGTAT-3´ and reverse-5´-CATAGGAGTCCTTCTGACCCATTC-3´ ([Schulz et al. 2012]). All primers were run through the National Center for Biotechnology Information Primer-BLAST database (http://www.ncbi.nlm.nih.gov/tools/primer-blast/) to confirm specificity and validate for optimal annealing temperature (60°C for all primers) and efficiency. The efficiency of all primer pairs was 98–102% (tested at 60°C). The following program was used for denaturation and amplification of cDNA: 3 min at 95°C, followed by 40 cycles of 15 sec at 95°C and 45 sec at 60°C. Gene expression for each sample was expressed as threshold cycle (Ct), normalized to the reference gene β-actin (ΔCt). We calculated fold induction relative to the control group.
Data analysis. We obtained concentration–response curves using a sigmoidal dose–response nonlinear regression curve fit with variable slope (GraphPad Prism 6.01; GraphPad Software Inc., San Diego, CA, USA): […]
Regarding `Clc1cc2oc3c(Cl)c(Cl)c(Cl)cc3c2cc1Cl` [Congener 4-PeCDF, 2,3,4,7,8-pentachlorodibenzofuran], the “BMR20TCDD PBLs Cyp1b1 mRNA” value amounted to 514 µg/kg BW.

In the case of `Clc1cc2c(cc1Cl)Oc1c(cc(Cl)c(Cl)c1Cl)O2` [PeCDD, 1,2,3,7,8-pentachlorodibenzodioxin], the “BMR20TCDD PBLs Cyp1b1 mRNA” value is listed as 51.8 µg/kg BW.

For `Clc1cc2c(cc1Cl)Oc1cc(Cl)c(Cl)cc1O2` [TCDD, 2,3,7,8-tetrachlorodibenzodioxin, reference compound], the “BMR20TCDD PBLs Cyp1b1 mRNA” value stood at 20.9 µg/kg BW.

The data set is the same for the next values; noted with them: dose metric Syst plasma; 3 days after single oral dose.
In the case of `Clc1cc2oc3c(Cl)c(Cl)c(Cl)cc3c2cc1Cl` [Congener 4-PeCDF, 2,3,4,7,8-pentachlorodibenzofuran], the “BMR20TCDD PBLs Cyp1b1 mRNA” value was 212 ng/g lipid.

Take `Clc1cc2c(cc1Cl)Oc1c(cc(Cl)c(Cl)c1Cl)O2` [PeCDD, 1,2,3,7,8-pentachlorodibenzodioxin]: the “BMR20TCDD PBLs Cyp1b1 mRNA” value worked out at 63.8 ng/g lipid.

Consider `Clc1cc2c(cc1Cl)Oc1cc(Cl)c(Cl)cc1O2` [TCDD, 2,3,7,8-tetrachlorodibenzodioxin, reference compound], for which the “BMR20TCDD PBLs Cyp1b1 mRNA” value is 53.5 ng/g lipid.

Staying with this data set, now noted: highest dose tested; day 3.
On to `Clc1ccc(-c2cc(Cl)c(Cl)c(Cl)c2)cc1Cl` [PCB-126, 3,3´,4,4´,5-pentachlorobiphenyl], for which the “Induction of Cyp1b1 mRNA in PBLs, of the maximal induction of TCDD” value was 3.5%.

Still in this data set, the particulars now being: relative to TCDD; dose metric Adm dose (µg/kg BW).
For `Clc1cc2oc3c(Cl)c(Cl)c(Cl)cc3c2cc1Cl` [Congener 4-PeCDF, 2,3,4,7,8-pentachlorodibenzofuran], the “REP PBLs Cyp1b1 mRNA” value is 0.04.

Take `Clc1cc2c(cc1Cl)Oc1c(cc(Cl)c(Cl)c1Cl)O2` [PeCDD, 1,2,3,7,8-pentachlorodibenzodioxin]: the “REP PBLs Cyp1b1 mRNA” value is recorded as 0.4.

For `Clc1cc2c(cc1Cl)Oc1cc(Cl)c(Cl)cc1O2` [TCDD, 2,3,7,8-tetrachlorodibenzodioxin, reference compound], the “REP PBLs Cyp1b1 mRNA” value stood at 1.

The same data set, now with this note: relative to TCDD; dose metric Syst plasma (ng/g lipid).
For `Clc1cc2oc3c(Cl)c(Cl)c(Cl)cc3c2cc1Cl` [Congener 4-PeCDF, 2,3,4,7,8-pentachlorodibenzofuran], the “REP PBLs Cyp1b1 mRNA” value came to 0.3.

With `Clc1cc2c(cc1Cl)Oc1c(cc(Cl)c(Cl)c1Cl)O2` [PeCDD, 1,2,3,7,8-pentachlorodibenzodioxin], the “REP PBLs Cyp1b1 mRNA” value is given as 0.8.

In the case of `Clc1cc2c(cc1Cl)Oc1cc(Cl)c(Cl)cc1O2` [TCDD, 2,3,7,8-tetrachlorodibenzodioxin, reference compound], the “REP PBLs Cyp1b1 mRNA” value turned out to be 1.

Staying with this data set, now noted: single oral dose, day 3.
On to `Clc1cc2oc3c(Cl)c(Cl)c(Cl)cc3c2cc1Cl` [Congener 4-PeCDF, 2,3,4,7,8-pentachlorodibenzofuran], for which the “Effect on Cyp1b1 mRNA in PBLs” value was “dose-dependently induced”.

Take `Clc1ccc(-c2cc(Cl)c(Cl)cc2Cl)cc1Cl` [PCB-118, 2,3´,4,4´,5-pentachlorobiphenyl]: the “Effect on Cyp1b1 mRNA in PBLs” value is recorded as “did not induce”.

With `Clc1cc(Cl)c(-c2cc(Cl)c(Cl)cc2Cl)cc1Cl` [PCB-153, 2,2´,4,4´,5,5´-hexachlorobiphenyl], the “Effect on Cyp1b1 mRNA in PBLs” value was “did not induce”.

As for `Clc1ccc(-c2cc(Cl)c(Cl)c(Cl)c2Cl)cc1Cl` [PCB-156, 2,3,3´,4,4´,5-hexachlorobiphenyl], the “Effect on Cyp1b1 mRNA in PBLs” value is listed as “did not induce”.

As to `Clc1cc2c(cc1Cl)Oc1c(cc(Cl)c(Cl)c1Cl)O2` [PeCDD, 1,2,3,7,8-pentachlorodibenzodioxin], the “Effect on Cyp1b1 mRNA in PBLs” value was “dose-dependently induced”.

On to `Clc1cc2c(cc1Cl)Oc1cc(Cl)c(Cl)cc1O2` [TCDD, 2,3,7,8-tetrachlorodibenzodioxin, reference compound], for which the “Effect on Cyp1b1 mRNA in PBLs” value was “dose-dependently induced”.

Tested on in the next data set: not given
Assay: not given
The settings on record: toxic equivalency factor relative to TCDD; ref Van den Berg et al. 2006; cited from earlier work.
On to `Clc1cc2oc3c(Cl)c(Cl)c(Cl)cc3c2cc1Cl` [Congener 4-PeCDF, 2,3,4,7,8-pentachlorodibenzofuran], for which the WHO-TEF is given as 0.3.

For `Clc1ccc(-c2cc(Cl)c(Cl)cc2Cl)cc1Cl` [PCB-118, 2,3´,4,4´,5-pentachlorobiphenyl], the WHO-TEF is on record as 0.00003.

On to `Clc1ccc(-c2cc(Cl)c(Cl)c(Cl)c2)cc1Cl` [PCB-126, 3,3´,4,4´,5-pentachlorobiphenyl], for which the WHO-TEF was 0.1.

`Clc1ccc(-c2cc(Cl)c(Cl)c(Cl)c2Cl)cc1Cl` [PCB-156, 2,3,3´,4,4´,5-hexachlorobiphenyl]: the WHO-TEF is 0.00003.

With `Clc1cc2c(cc1Cl)Oc1c(cc(Cl)c(Cl)c1Cl)O2` [PeCDD, 1,2,3,7,8-pentachlorodibenzodioxin], the WHO-TEF is 1.

As to `Clc1cc2c(cc1Cl)Oc1cc(Cl)c(Cl)cc1O2` [TCDD, 2,3,7,8-tetrachlorodibenzodioxin, reference compound], the WHO-TEF is 1.
